The supplement of paper PMC9663587

What was measured:
YKL-5-124 [1] = compound: T1, C=CC(=O)Nc1ccc(C(=O)Nc2[nH]nc3c2CN(C(=O)N[C@H](CN(C)C)c2ccccc2)C3(C)C)cc1 [YKL-5-124]
Bleomycin = compound: CC1=C(N=C(N=C1N)[C@H](CC(=O)N)NC[C@@H](C(=O)N)N)C(=O)N[C@@H]([C@H](C2=CN=CN2)OC3C(C(C(C(O3)CO)O)O)OC4C(C(C(C(O4)CO)O)OC(=O)N)O)C(=O)N[C@H](C)[C@H]([C@H](C)C(=O)N[C@@H]([C@@H](C)O)C(=O)NCCC5=NC(=CS5)C6=NC(=CS6)C(=O)NCCC[S+](C)C)O [Bleomycin]; settings: main component drawn
FMF-03-145-1 = compound: CCC(=O)Nc1ccc(C(=O)Nc2ccc(Nc3ncc4c(n3)N(C)c3ccc(C)cc3C(=O)N4C)cc2)cc1 [FMF-03-145-1]
Topotecan = compound: CC[C@@]1(O)C(=O)OCc2c1cc1n(c2=O)Cc2cc3c(CN(C)C)c(O)ccc3nc2-1 [Topotecan]
Everolimus = compound: CO[C@H]1C[C@@H]2CC[C@@H](C)[C@@](O)(O2)C(=O)C(=O)N2CCCC[C@H]2C(=O)O[C@H]([C@H](C)C[C@@H]2CC[C@@H](OCCO)[C@H](OC)C2)CC(=O)[C@H](C)/C=C(\C)[C@@H](O)[C@@H](OC)C(=O)[C@H](C)C[C@H](C)/C=C/C=C/C=C/1C [Everolimus]
Etoposide = compound: COc1cc([C@@H]2c3cc4c(cc3[C@@H](O[C@@H]3O[C@@H]5CO[C@@H](C)O[C@H]5[C@H](O)[C@H]3O)[C@H]3COC(=O)[C@H]23)OCO4)cc(OC)c1O [Etoposide]
[2] = compound: COc1cccc(OCCCN)c1-c1cc(Nc2cnc(C#N)cn2)n[nH]1
Cisplatin = compound: N.N.Cl[Pt]Cl [Cisplatin]
YKL-5-124 [3] = compound: T1, YKL-5-124; test: increase in dead-cell fraction, 72 h; higher = more death;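 also: breast cancer cell lines in 384-well plates, stained with Hoechst plus LIVE/DEAD far red dye and imaged, cells above an LDR intensity threshold counted dead, Hoechst-negative corpses included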
THZ531 = compound: CN(C)C/C=C/C(=O)Nc1ccc(C(=O)N2CCC[C@@H](Nc3ncc(Cl)c(-c4c[nH]c5ccccc45)n3)C2)cc1 [THZ531]; test: as above
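For GR50, 72 h in this document: breast cancer and non-malignant breast epithelial cell lines, Deep Dye Drop or Dye Drop imaging, nine half-log doses, GR normalized to time-zero plates and DMSO-only controls.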

Row | Cell Line | GR50, 72 h (YKL-5-124 [1]) | GR50, 72 h (Bleomycin) | GR50, 72 h (FMF-03-145-1) | GR50, 72 h (Topotecan) | GR50, 72 h (Everolimus) | GR50, 72 h (Etoposide) | GR50, 72 h [2] | GR50, 72 h (Cisplatin) | increase in dead-cell fraction (YKL-5-124 [3]; 0.001 µM) | increase in dead-cell fraction (YKL-5-124 [3]; 0.003162 µM) | increase in dead-cell fraction (YKL-5-124 [3]; 0.01 µM) | increase in dead-cell fraction (YKL-5-124 [3]; 0.03162 µM) | increase in dead-cell fraction (YKL-5-124 [3]; 0.1 µM) | increase in dead-cell fraction (YKL-5-124 [3]; 0.3162 µM) | increase in dead-cell fraction (YKL-5-124 [3]; 1 µM) | increase in dead-cell fraction (YKL-5-124 [3]; 3.162 µM) | increase in dead-cell fraction (YKL-5-124 [3]; 10 µM) | increase in dead-cell fraction (THZ531; 0.0001 µM) | increase in dead-cell fraction (THZ531; 0.0003162 µM) | increase in dead-cell fraction (THZ531; 0.001 µM) | increase in dead-cell fraction (THZ531; 0.003162 µM) | increase in dead-cell fraction (THZ531; 0.01 µM) | increase in dead-cell fraction (THZ531; 0.03162 µM) | increase in dead-cell fraction (THZ531; 0.1 µM) | increase in dead-cell fraction (THZ531; 0.3162 µM) | increase in dead-cell fraction (THZ531; 1 µM)
1 | HCC1395 | 0.00123 µM | 0.104 µM | 0.00474 µM | 0.00275 µM | 0.00256 µM | 0.42 µM | 0.000487 µM | 0.491 µM | 0.0251 | 0.0285 | 0.0648 | 0.0466 | 0.0638 | 0.0762 | 0.0835 | 0.0876 | 0.152 | 0.0083 | -0.0121 | 0.0071 | 0.0027 | -0.0161 | -0.0019 | 0.0618 | 0.113 | 0.242
2 | CAL51 | 0.00889 µM | 0.169 µM | 0.00666 µM | 0.0191 µM | > 10 µM | 0.24 µM | 0.000588 µM | 2.1 µM | 0.0123 | 0.0229 | 0.0534 | 0.0508 | 0.0599 | 0.0693 | 0.0723 | 0.134 | 0.192 | 0.0035 | 0.0008 | 0.0008 | -0.0007 | -0.0017 | 0.0021 | 0.0037 | 0.019 | 0.0391
3 | MCF10A (GM) | < 0.001 µM |  | 0.00563 µM |  |  |  | 0.0122 µM |  | 0.22 | 0.329 | 0.363 | 0.249 | 0.226 | 0.293 | 0.263 | 0.218 | 0.391 | 0.0026 | 0.0015 | -0.0008 | -0.0019 | 0.0006 | 0.0017 | 0.0028 | 0.0137 | 0.62
4 | MDAMB361 | < 0.001 µM | 0.758 µM | 0.00904 µM | 0.0114 µM | < 0.001 µM | 1.19 µM | 0.000459 µM | 2.63 µM | 0.0281 | 0.0171 | 0.0264 | 0.0267 | 0.0421 | 0.0191 | 0.0241 | 0.0411 | 0.371 | -0.004 | -0.0021 | 0.0045 | -0.0062 | -0.0039 | 0.0484 | 0.454 | 0.219 | 0.106
5 | MDAMB468 | < 0.001 µM | 0.823 µM | 0.00536 µM | 0.0158 µM | > 10 µM | 0.488 µM |  | 1.26 µM | 0.0818 | 0.116 | 0.0906 | 0.163 | 0.171 | 0.183 | 0.231 | 0.213 | 0.386 | -0.0128 | 0.0007 | -0.006 | 0.0023 | 0.0064 | 0.0382 | 0.104 | 0.168 | 0.141
6 | HCC38 | < 0.001 µM | 0.199 µM | 0.00507 µM | 0.00681 µM |  | 0.334 µM | 0.000505 µM | 0.993 µM | 0.0525 | 0.0845 | 0.102 | 0.109 | 0.115 | 0.184 | 0.197 | 0.147 | 0.407 | -0.0063 | 0.0002 | 0.0018 | 0.0016 | -0.0096 | 0.0087 | 0.0251 | 0.156 | 0.327
7 | HCC1143 | < 0.001 µM | 0.0482 µM | 0.00583 µM | 0.00941 µM | > 10 µM | 0.463 µM | 0.000582 µM | 0.837 µM | 0.0369 | 0.0319 | 0.0518 | 0.0428 | 0.0477 | 0.0836 | 0.0896 | 0.0668 | 0.121 | 0.0046 | 0.0047 | 0.0003 | 0.0002 | -0.0009 | 0.0121 | 0.0256 | 0.117 | 0.134
8 | CAL851 |  | 0.453 µM | 0.00449 µM | 0.0158 µM | 0.00155 µM | 0.416 µM | 0.000351 µM | 1.03 µM | 0.0613 | 0.0965 | 0.0961 | 0.1 | 0.12 | 0.15 | 0.096 | 0.12 | 0.402 | 0.0002 | 0.0044 | -0.0008 | 0.0011 | 0.0061 | 0.0125 | 0.0297 | 0.048 | 0.0747
9 | HTERT_HME1 | < 0.001 µM | 0.207 µM | 0.00584 µM | 0.00727 µM |  | 0.138 µM | 0.000593 µM | 1.12 µM | 0.0989 | 0.131 | 0.165 | 0.151 | 0.181 | 0.224 | 0.144 | 0.293 | 0.304 | -0.0002 | -0.0145 | 0.0054 | -0.0171 | -0.0178 | 0.0065 | 0.0042 | 0.175 | 0.386
10 | EFM19 | < 0.001 µM |  | 0.00827 µM |  | < 0.001 µM |  |  |  | 0.0076 | 0.0133 | 0.0465 | 0.0193 | 0.0243 | 0.0368 | 0.0396 | 0.0167 | 0.0439 | -0.0038 | -0.0067 | -0.005 | -0.0057 | -0.0007 | 0.0062 | 0.0006 | -0.0035 | 0.527
11 | UACC812 | < 0.001 µM |  | 0.00186 µM |  |  |  |  |  | 0.0021 | 0.0107 | 0.0182 | 0.0223 | 0.0246 | 0.0283 | 0.0151 | 0.027 | 0.0485 | 0.0045 | 0.0009 | 0.0012 | -0.0009 | 0.0008 | -0.0001 | -0.0004 | 0.0004 | 0.0127
12 | HCC1937 | 0.00225 µM | 0.187 µM | 0.00546 µM | 0.0155 µM | > 10 µM | 0.355 µM | 0.000607 µM | 0.777 µM | 0.004 | 0.0243 | 0.0426 | 0.0331 | 0.0403 | 0.0391 | 0.0843 | 0.0582 | 0.0895 | 0.0017 | 0.0017 | 0.0043 | -0.0008 | -0.0084 | -0.0082 | 0.0051 | 0.0511 | 0.0969
13 | SUM1315 | 0.0168 µM | 0.214 µM | 0.0047 µM | 0.0118 µM |  | 0.29 µM | 0.000483 µM | 1.28 µM | 0.0195 | 0.0396 | 0.0503 | 0.0215 | 0.0766 | 0.0731 | 0.171 | 0.134 | 0.364 | 0.0119 | -0.0037 | -0.0061 | 0.0067 | 0.001 | -0.0178 | -0.0022 | 0.0155 | 0.204
